Data reported in patent US12404285B2, “KRAS G12D proteolysis targeting chimeras” (PAQ Therapeutics Inc., priority 2022, dated 2025).

Target: T1, KRAS (G12D)-HiBit in AsPc-1-KRAS (G12D)-HiBit-KI cell (Homo sapiens, UniProt P01116, G12D)
T1 construct: host or cells: AsPc-1-KRAS (G12D)-HiBit-KI cells (knock-in line)
Assay: G12D HiBit assay
Type: cell-based
Conditions: 24 hours compound treatment, absolute DC50, read-out: Average PHA DC50
Outline: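 AsPc-1 cells with HiBiT knocked into KRAS G12D, seeded at 5×10^3/well and held overnight, then treated 24 h with 10-point 3-fold dilutions (300 nM to 0.015 nM). Lytic Nano-Glo HiBiT luminescence expressed as % of 0.1% DMSO control; absolute DC50 from curve fit.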

T1 sequence (P01116 1-188 isoform P01116-2 G12D): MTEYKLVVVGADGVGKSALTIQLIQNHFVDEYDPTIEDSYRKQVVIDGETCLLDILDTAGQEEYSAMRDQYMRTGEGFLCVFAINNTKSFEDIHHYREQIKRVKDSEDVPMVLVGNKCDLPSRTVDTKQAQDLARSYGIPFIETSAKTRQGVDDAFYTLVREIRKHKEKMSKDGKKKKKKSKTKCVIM

SMILES	DC50 [nM]
C#Cc1c(F)ccc2cccc(-c3ncc4c(N5CC6CCC(C5)N6)nc(OC[C@@]56CCCN5[C@H](COC(=O)N5CCC(OC7CCN(c8ccc9c(c8)n(C)c(=O)n9C8CCC(=O)NC8=O)CC7)CC5)CC6)nc4c3F)c12 (stereo partly drawn) [Compound 98, [(3S,8S)-8-[[4-(3,8-Diazabicyclo[3.2.1]octan-3-yl)-7-(8-ethynyl-7-fluoro-1-naphthyl)-8-fluoro-pyrido[4,3-d]pyrimidin-2-yl]oxymethyl]-1,2,3,5,6,7-hexahydropyrrolizin-3-yl]methyl 4-[[1-[1-(2,6-dioxo-3-piperidyl)-3-methyl-2-oxo-benzimidazol-5-yl]-4-piperidyl]oxy]piperidine-1-carboxylate]	< 100
C#Cc1c(F)ccc2cccc(-c3ncc4c(N5CC6CCC(C5)N6)nc(OC[C@@]56CCCN5[C@H](COC(=O)N5CCC(OC7CCN(c8cccc9c8n(C)c(=O)n9C8CCC(=O)NC8=O)CC7)CC5)CC6)nc4c3F)c12 (stereo partly drawn) [Compound 99, [(3S,8S)-8-[[4-(3,8-Diazabicyclo[3.2.1]octan-3-yl)-7-(8-ethynyl-7-fluoro-1-naphthyl)-8-fluoro-pyrido[4,3-d]pyrimidin-2-yl]oxymethyl]-1,2,3,5,6,7-hexahydropyrrolizin-3-yl]methyl 4-[[1-[1-(2,6-dioxo-3-piperidyl)-3-methyl-2-oxo-benzimidazol-4-yl]-4-piperidyl]oxy]piperidine-1-carboxylate]	< 100
C#Cc1c(F)ccc2cccc(-c3ncc4c(N5CC6CCC(C5)N6)nc(OC[C@@]56CCCN5[C@H](COC(=O)N5CCC(CN7CC(Oc8cccc9c8n(C)c(=O)n9C8CCC(=O)NC8=O)C7)CC5)CC6)nc4c3F)c12 (stereo partly drawn) [Compound 100, [(3S,8S)-8-[[4-(3,8-diazabicyclo[3.2.1]octan-3-yl)-7-(8-ethynyl-7-fluoro-1-naphthyl)-8-fluoro-pyrido[4,3-d]pyrimidin-2-yl]oxymethyl]-1,2,3,5,6,7-hexahydropyrrolizin-3-yl]methyl 4-[[3-[1-(2,6-dioxo-3-piperidyl)-3-methyl-2-oxo-benzimidazol-4-yl]oxyazetidin-1-yl]methyl]piperidine-1-carboxylate]	< 100
C#Cc1c(F)ccc2cccc(-c3ncc4c(N5CC6CCC(C5)N6)nc(OC[C@@]56CCCN5[C@H](COC(=O)N5CC(OCC7CCN(c8ccc9c(c8)n(C)c(=O)n9C8CCC(=O)NC8=O)CC7)C5)CC6)nc4c3F)c12 (stereo partly drawn) [Compound 101, [(3S,8S)-8-[[4-(3,8-Diazabicyclo[3.2.1]octan-3-yl)-7-(8-ethynyl-7-fluoro-1-naphthyl)-8-fluoro-pyrido[4,3-d]pyrimidin-2-yl]oxymethyl]-1,2,3,5,6,7-hexahydropyrrolizin-3-yl]methyl 3-[[1-[1-(2,6-dioxo-3-piperidyl)-3-methyl-2-oxo-benzimidazol-5-yl]-4-piperidyl]methoxy]azetidine-1-carboxylate]	< 100
C#Cc1c(F)ccc2cccc(-c3ncc4c(N5CC6CCC(C5)N6)nc(OC[C@@]56CCCN5[C@H](COC(=O)N5CCC(COC7CN(c8ccc9c(c8)n(C)c(=O)n9C8CCC(=O)NC8=O)C7)CC5)CC6)nc4c3F)c12 (stereo partly drawn) [Compound 102, [(3S,8S)-8-[[4-(3,8-Diazabicyclo[3.2.1]octan-3-yl)-7-(8-ethynyl-7-fluoro-1-naphthyl)-8-fluoro-pyrido[4,3-d]pyrimidin-2-yl]oxymethyl]-1,2,3,5,6,7-hexahydropyrrolizin-3-yl]methyl4-[[1-[1-(2,6-dioxo-3-piperidyl)-3-methyl-2-oxo-benzimidazol-5-yl]azetidin-3-yl]oxymethyl]piperidine-1-carboxylate]	< 100
C#Cc1c(F)ccc2cccc(-c3ncc4c(N5CC6CCC(C5)N6)nc(OC[C@@]56CCCN5[C@H](COC(=O)N5CC7CCC(C5)C7CN5CCC(c7ccc8c(c7)n(C)c(=O)n8C7CCC(=O)NC7=O)CC5)CC6)nc4c3F)c12 (stereo partly drawn) [Compound 103, [(3S,8S)-8-[[4-(3,8-Diazabicyclo[3.2.1]octan-3-yl)-7-(8-ethynyl-7-fluoro-1-naphthyl)-8-fluoro-pyrido[4,3-d]pyrimidin-2-yl]oxymethyl]-1,2,3,5,6,7-hexahydropyrrolizin-3-yl]methyl8-[[4-[1-(2,6-dioxo-3-piperidyl)-3-methyl-2-oxo-benzimidazol-5-yl]-1-piperidyl]methyl]-3-azabicyclo[3.2.1]octane-3-carboxylate]	< 100
C#Cc1c(F)ccc2cccc(-c3ncc4c(N5CC6CCC(C5)N6)nc(OC[C@@]56CCCN5[C@H](COC(=O)N5CC(COC7CCN(c8ccc9c(c8)n(C)c(=O)n9C8CCC(=O)NC8=O)CC7)C5)CC6)nc4c3F)c12 (stereo partly drawn) [Compound 104, [(3S,8S)-8-[[4-(3,8-Diazabicyclo[3.2.1]octan-3-yl)-7-(8-ethynyl-7-fluoro-1-naphthyl)-8-fluoro-pyrido[4,3-d]pyrimidin-2-yl]oxymethyl]-1,2,3,5,6,7-hexahydropyrrolizin-3-yl]methyl 3-[[1-[1-(2,6-dioxo-3-piperidyl)-3-methyl-2-oxo-benzimidazol-5-yl]-4-piperidyl]oxymethyl]azetidine-1-carboxylate]	< 100
C#Cc1c(F)ccc2cccc(-c3ncc4c(N5CC6CCC(C5)N6)nc(OC[C@@]56CCCN5[C@H](COC(=O)N5CCC(CCOCC#Cc7ccc8c(c7)n(C)c(=O)n8C7CCC(=O)NC7=O)CC5)CC6)nc4c3F)c12 (stereo partly drawn) [Compound 105, [(3S,8S)-8-[[4-(3,8-diazabicyclo[3.2.1]octan-3-yl)-7-(8-ethynyl-7-fluoro-1-naphthyl)-8-fluoro-pyrido[4,3-d]pyrimidin-2-yl]oxymethyl]-1,2,3,5,6,7-hexahydropyrrolizin-3-yl]methyl 4-[2-[3-[1-(2,6-dioxo-3-piperidyl)-3-methyl-2-oxo-benzimidazol-5-yl]prop-2-ynoxy]ethyl]piperidine-1-carboxylate]	< 100
C#Cc1c(F)ccc2cccc(-c3ncc4c(N5CC6CCC(C5)N6)nc(OC[C@@]56CCCN5[C@H](COC(=O)N5CCC(CN7CCN(c8ccc9c(c8)n(C)c(=O)n9C8CCC(=O)NC8=O)CC7)CC5)CC6)nc4c3F)c12 (some centres unmarked) [Compound 106]	< 100
C#Cc1c(F)ccc2cccc(-c3ncc4c(N5CC6CCC(C5)N6)nc(OC[C@@]56CCCN5[C@H](COC(=O)N5CCC(OCCC#Cc7cccc8c7n(C)c(=O)n8C7CCC(=O)NC7=O)CC5)CC6)nc4c3F)c12 (stereo partly drawn) [Compound 107, [(3S,8S)-8-[[4-(3,8-diazabicyclo[3.2.1]octan-3-yl)-7-(8-ethynyl-7-fluoro-1-naphthyl)-8-fluoro-pyrido[4,3-d]pyrimidin-2-yl]oxymethyl]-1,2,3,5,6,7-hexahydropyrrolizin-3-yl]methyl 4-[4-[1-(2,6-dioxo-3-piperidyl)-3-methyl-2-oxo-benzimidazol-4-yl]but-3-ynoxy]piperidine-1-carboxylate]	< 100
C#Cc1c(F)ccc2cccc(-c3ncc4c(N5CC6CCC(C5)N6)nc(OC[C@@]56CCCN5[C@H](COC(=O)N5CCC(CN(C)C7CCN(c8cccc9c8n(C)c(=O)n9C8CCC(=O)NC8=O)CC7)CC5)CC6)nc4c3F)c12 (stereo partly drawn) [Compound 108, [(3S,8S)-8-[[4-(3,8-Diazabicyclo[3.2.1]octan-3-yl)-7-(8-ethynyl-7-fluoro-1-naphthyl)-8-fluoro-pyrido[4,3-d]pyrimidin-2-yl]oxymethyl]-1,2,3,5,6,7-hexahydropyrrolizin-3-yl]methyl4-[[[1-[1-(2,6-dioxo-3-piperidyl)-3-methyl-2-oxo-benzimidazol-4-yl]-4-piperidyl]-methyl-amino]methyl]piperidine-1-carboxylate]	< 100
